According to patent US20230220047A1, “PEPTIDES FOR TREATMENT OF SEPSIS AND CANCER” (NORWEGIAN UNIVERSITY OF SCIENCE AND TECHNOLOGY (NTNU), priority 2020, published 2023):
“Also recorded” adds a separate entry of the source.

How the values were obtained:
[1] = system: ANBL-6 multiple myeloma cells; test: CellTiter-Glo cell viability assay, ANBL-6; assay type: cell-based
Protocol: Minor effects on the proliferation of the IH-1 and RPMI 8226 cell lines are seen. Cells were seeded at the level shown (left-hand bar of each set) then incubated in medium containing water, 10 μM penetratin or 10 μM P7-A4-Pen for 48 hr (except for INA-6 cells, which were incubated with 12.5 μM penetratin or 12.5 μM P7-A4-Pen). The number of viable cells was detected based on quantitation of ATP by luminescent signal in correlation to a standard curve prepared for each cell line. Results are based on 3-5 biological replicates for each condition, error bars show standard deviation of mean.
Cells were seeded and then incubated in growth medium alone or supplemented with water, DMSO, 15 μM penetratin or 15 μM investigational peptide. The growth medium only and H2O—, DMSO- and penetratin-supplemented cultures constituted controls.
The solid horizontal lines show the amount of cells originally seeded. In (A) ANBL-6 cells were seeded at a level of 10,000 cells/well, then incubated in medium supplemented with water, the control peptide C3A-Pen, P7-Pen, P7-A4-Pen, P7-N4-Pen or P7-K2-Pen for 48 hours. The peptides were included at concentrations of 5, 10, 12.5, 15, 20 or 30 μM. Cells were counted at 48 hours. In (B), ANBL-6 cells were seeded at a level of 5000 cells/well, then incubated in medium supplemented with water, P6-Pen, P-P6-Pen, P7-D4-Pen or P7-A4-Pen for 48 hours. Peptides were included at concentrations of 5, 10 or 20 μM. Cells were counted at 48 hours. […] Results are based on 3 biological replicates, error bars show standard deviation of mean.
(§1) Multiple myeloma cells JJN-3 (DSMZ (Germany) no. ACC 541), ANBL-6 (Cellosaurus accession number CVCL_5425, obtained from Dr Diane Jelinek, Mayo Clinic, Rochester, Minn.), INA-6 (Cellosaurus accession number CVCL_5209, obtained from Dr M. Gramatzki, University of Erlangen-Nurnberg, Erlangen, Germany), RPMI-8226 (ATCC CCL-155), and IH-1 (Cellosaurus accession number CVCL_WZ44, established from the pleural effusion of a myeloma patient by Myeloma research group, IKOM, NTNU, Trondheim, Norway) were grown in RPMI-1640 (Sigma-Aldrich Norway, Oslo, Norway) supplemented with 100 nM penicillin/streptomycin and 10% FCS, and for ANBL-6, IH-1 and INA-6 cells 2 ng/ml recombinant IL-6 (Gibco, Thermo Fisher Scientific, Waltham, Mass., USA). Murine multiple myeloma Vk*MYC cells were obtained from M.D. Leif Bergsagel (Mayo Clinic, Richester, Minn., USA) and cultured in RPMI-1640 supplemented with 2% human serum (B^+, The blood bank, St Olav's Hospital, Trondheim, Norway), 100 nM penicillin/streptomycin, L-Glutamine (2 mM) and recombinant IL-6 (1 ng/ml). HEK293T (ATCC CRL-3216) were cultured in DMEM with 10% FCS. THP-1 TRAM knockout (KO) and TLR4 KO cell lines, and matching lentivirally transduced control cell lines, were differentiated in the same way as wild type (WT) THP-1. TRAM KO THP-1 cell line is described in Yurchenko et al. (supra).
To evaluate the potential impact of the P7 peptide on proliferation of tumour cells of lymphoid origin, we performed a CellTiter-Glo Luminescent Cell Viability Assay to address proliferation of several multiple myeloma (MM) cell lines. For the assay, cells were incubated for 48 h in respective media containing either solvent (water), 10 μM control peptide (Pen) or the SLAMF1-derived peptide P7-A4-Pen for 48 h (FIG. 32) (with the exception of the INA-6 cells which were incubated with 12.5 μM control peptide or P7-A4-Pen). […] This effect could be mediated by P7-A4-Pen-induced inhibition of signalling pathways that are crucial for driving proliferation and/or survival of MM tumour cells.

[2] = system: primary Vk*MYC multiple myeloma cells; test: Primary Vk*MYC multiple myeloma cells; assay type: cell-based, mouse; settings: 7.5 or 15 μM, 48 h
Protocol: Isolated primary cells were seeded then incubated for 48 hours in growth medium supplemented with water, penetratin, P7-Pen, P7-A4-Pen or P7-N4-Pen, then counted. Peptides were included at concentrations of 7.5 or 15 μM. […] Results are based on 3 biological replicates, error bars show standard deviation of mean.
as §1
Primary multiple myeloma cells were isolated from Vk*Myc mice and provided by the Multiple Myeloma Research Group, IKOM, NTNU. The peptides P7-Pen, P7-N4-Pen and P7-A4-Pen were applied to the cultured primary cells and effect of the peptides on cell growth analysed as previously.

[3] = system: JJN-3 multiple myeloma cells; assay type: cell-based, human; settings: JJN-3, 4 μM peptide
Source text: Minor effects on the proliferation of the IH-1 and RPMI 8226 cell lines are seen. […] The number of viable cells was detected based on quantitation of ATP by luminescent signal in correlation to a standard curve prepared for each cell line. Results are based on 3-5 biological replicates for each condition, error bars show standard deviation of mean.
as §1
To evaluate the potential impact of the P7 peptide on proliferation of tumour cells of lymphoid origin, we performed a CellTiter-Glo Luminescent Cell Viability Assay to address proliferation of several multiple myeloma (MM) cell lines. […]

SW480 cells = test: Proliferation of SW480 colon cancer cells; assay type: cell-based, human; settings: 15 μM, 48 h, with or without LPS 100 ng/ml
Protocol: SW480 cells were seeded and incubated in medium alone or supplemented with water, 15 μM penetratin, 15 μM P7-Pen or 15 μM P7-N4-Pen. Under each condition cells were incubated both without LPS and with 100 ng/ml LPS. Cells were incubated for 48 hours then counted. […] The presence of LPS made no difference to the effect of the peptides on proliferation. Results are based on 3 biological replicates, error bars show standard deviation of mean.
(§2) SW480 (ATCC CCL-228) and Jurkat (ATCC Clone E6-1; TIB-152) cells were cultured in RPMI 1640 (Sigma-Aldrich, Schnelldorf, Germany) supplemented with 10% heat-inactivated FCS, penicillin/streptomycin (Life Technologies) and 20 mM L-Glutamine. THP-1 cells (ATCC TIB-202) were cultured in RPMI-1640 (high-glucose, ATCC) supplemented with 10% heat inactivated foetal calf serum (FCS), 100 nM penicillin/streptomycin and 5 μM β-mercaptoethanol (Sigma). THP-1 cells were differentiated with 60 ng/ml phorbol 12-myristate 13-acetate (PMA, Sigma) for 72 h, followed by 24 or 48 h in medium without PMA.
(§3) The peptides were tested against the SW480 cell line in the presence and absence of LPS.

THP-1 cells = test: Viability of acute myeloid leukaemia cell line THP-1; assay type: cell-based, human; settings: 5-30 μM, 48 h
Protocol: THP-1 cells were seeded in medium at 10,000 cells/well, as indicated by the dotted line. Cells were incubated for 48 hours in medium supplemented with water, C3A-Pen, P7-Pen, P7-A4-Pen or P7-N4-Pen. The peptides were included at concentrations ranging from 5-30 μM. At 48 hours cells were counted. […] The results with other peptides were less clear-cut. Results are based on 3 biological replicates, error bars show standard deviation of mean.
as §3

Jurkat cells = test: Proliferation of Jurkat T cell leukaemia cells; assay type: cell-based, human; settings: 15 μM or 20 μM, 48 h
Protocol: Jurkat cells were seeded at 5000 cells/well (as indicated by dotted line) and incubated in medium supplemented with water, penetratin, P7-Pen or P7-N4-Pen. Peptides were included at 15 μM (A) or 20 μM (B). Cells were incubated for 48 hours then counted. […] Results are based on 3 biological replicates, error bars show standard deviation of mean.
as §2, §3

Substance: Ac-ITVNASVTLTGRQIKIWFQNRRMKWKK-NH2 [Peptide P7-N4-Pen]
- effect on proliferation of ANBL-6 cells ([1]; 15 μM): anti-proliferative effect
- anti-proliferative activity over a concentration series ([1]; 5, 10, 12.5, 15, 20 and 30 μM or 5, 10 and 20 μM, 48 h): clear concentration-dependent effect
- effect on primary multiple myeloma cells [2]: strong cytotoxic effect
- combination effect with melphalan at low melphalan concentrations [3]: synergistic effect
- effect on proliferation of SW480 cells (SW480 cells): a degree of anti-proliferative effect
- effect on THP-1 cell number (THP-1 cells): clear dose-dependent cytotoxic effect; also recorded: anti-proliferative effect
- effect on proliferation of Jurkat cells (Jurkat cells): modest but clear anti-proliferative effect
